{"source": "paper PMC9241945", "about": "(Microbiology Spectrum, 2022)", "target": "T1, CTP synthase PyrG (Staphylococcus aureus, UniProt A6QIX1)", "T1 construct": "pyrG from S. aureus Newman in pET-28a, purified on Ni-NTA", "T1 sequence (A6QIX1 whole entry)": "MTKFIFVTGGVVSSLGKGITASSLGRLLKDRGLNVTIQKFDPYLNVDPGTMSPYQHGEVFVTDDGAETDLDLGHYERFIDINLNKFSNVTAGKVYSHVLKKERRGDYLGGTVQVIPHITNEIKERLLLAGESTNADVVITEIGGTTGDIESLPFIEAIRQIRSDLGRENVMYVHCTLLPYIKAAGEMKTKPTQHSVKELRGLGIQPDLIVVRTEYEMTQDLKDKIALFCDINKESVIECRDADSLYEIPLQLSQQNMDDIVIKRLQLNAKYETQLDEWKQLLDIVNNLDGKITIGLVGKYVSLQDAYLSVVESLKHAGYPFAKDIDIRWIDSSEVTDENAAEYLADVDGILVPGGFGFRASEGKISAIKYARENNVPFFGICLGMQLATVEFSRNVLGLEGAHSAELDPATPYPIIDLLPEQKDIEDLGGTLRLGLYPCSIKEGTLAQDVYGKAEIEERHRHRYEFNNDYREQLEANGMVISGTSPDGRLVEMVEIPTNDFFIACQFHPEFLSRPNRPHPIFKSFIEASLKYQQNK", "experiment": "intrinsic fluorescence quenching titration", "format": "binding", "data": [{"smiles": "Nc1ncnc2c1ncn2[C@@H]1O[C@H](COP(=O)(O)OP(=O)(O)OP(=O)(O)O)[C@@H](O)[C@H]1O", "note": "[ATP]", "values": [{"measurement": "Kd", "value": 320, "unit": "µM"}]}]}
